According to patent publication US6586402B1, “LH-RH peptide analogues, their uses and pharmaceutical compositions containing them” (Laboratoire Theramex, priority 1997, dated 2003):
Where two headings read alike, the source gives them in different places. Square brackets hold non-standard residues; d marks the D form. Peptide text beside a SMILES is read from it. * marks the point of attachment. dPhe(4-Cl) = N[C@H](Cc1ccc(Cl)cc1)C(=O)O; d2Nal = N[C@H](Cc1ccc2ccccc2c1)C(=O)O; d(hCit) = NC(=O)NCCCC[C@@H](N)C(=O)O; Lys(iPr) = CC(C)NCCCC[C@H](N)C(=O)O; dCit = NC(=O)NCCC[C@@H](N)C(=O)O; tBuAla = CC(C)(C)C[C@H](N)C(=O)O; d3Pal = N[C@H](Cc1cccnc1)C(=O)O; Nicotinoyl = O=C(c1cccnc1)*

Key:
[1] = biological target: LH-RH receptors (membrane fractions of pituitaries from female Sprague Dawley rats) (rat (female Sprague Dawley)) (UniProt P30969); test: competition with [125I]-buserelin, rat pituitary membranes; Ki by Cheng-Prusoff
[2] = biological target: LH-RH receptors (membrane fractions of pituitaries from female Sprague Dawley rats) (rat (female Sprague Dawley)) (UniProt P30969); test: competition with [125I]-buserelin, rat pituitary membranes
LH-RH receptors [3] = biological target: T1, LH-RH receptors (Rattus norvegicus, UniProt P30969); test: biochemical
T1 sequence (P30969 1-327): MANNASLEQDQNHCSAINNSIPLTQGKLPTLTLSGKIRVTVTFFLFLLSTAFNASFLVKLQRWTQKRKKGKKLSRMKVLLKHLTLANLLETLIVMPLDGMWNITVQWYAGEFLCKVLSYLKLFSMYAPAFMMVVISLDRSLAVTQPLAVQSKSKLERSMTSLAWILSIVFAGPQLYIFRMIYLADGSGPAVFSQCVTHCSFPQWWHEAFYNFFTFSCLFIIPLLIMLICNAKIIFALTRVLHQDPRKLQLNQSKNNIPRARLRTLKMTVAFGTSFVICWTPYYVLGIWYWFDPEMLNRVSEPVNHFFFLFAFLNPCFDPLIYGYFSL

LH-RH receptors [4] = biological target: T1, LH-RH receptors

Row | Molecule | pKi [1] | pKi [2] | Ki (LH-RH receptors [3]) | % of inhibition of ovulation (LH-RH receptors [4]; 0.5 μg/rat s.c.) | % of inhibition of ovulation (LH-RH receptors [4]; 1 μg/rat s.c.) | % of inhibition of ovulation (LH-RH receptors [4]; 0.25 μg/rat s.c.) | further results
1 | Deslorelin (peptide) | 9.9 -log Ki | > 9 -log Ki |  |  |  |  | 
2 | Buserelin (peptide) | 9.35 -log Ki | > 9 -log Ki |  |  |  |  | 
3 | CC(=O)N[C@H](Cc1ccc2ccccc2c1)C(=O)N[C@H](Cc1ccc(Cl)cc1)C(=O)N[C@H](Cc1cccnc1)C(=O)N[C@@H](CO)C(=O)N[C@@H](CCCCNC(=O)c1cccnc1)C(=O)N[C@H](CCCCNC(=O)c1cccnc1)C(=O)N[C@@H](CC(C)C)C(=O)N[C@@H](CCCCNC(C)C)C(=O)N1CCC[C@H]1C(=O)N[C@H](C)C(N)=O [Antide, reference compound] (Ac-[d2Nal][dPhe(4-Cl)][d3Pal]SK(Nicotinoyl)[dK](Nicotinoyl)L[Lys(iPr)]P[dA]-NH2) |  |  | 0.692 nM | 20% | 69% |  | % of inhibition of ovulation (LH-RH receptors [4]; 2.5 μg/rat s.c.): 67%; % of inhibition of ovulation (LH-RH receptors [4]; 5 μg/rat s.c.): 100%; % of inhibition of ovulation (LH-RH receptors [4]; 10 μg/rat s.c.): 100%
4 | CC(=O)N[C@H](Cc1ccc2ccccc2c1)C(=O)N[C@H](Cc1ccc(Cl)cc1)C(=O)N[C@H](Cc1cccnc1)C(=O)N[C@@H](CO)C(=O)N[C@@H](Cc1ccc(O)cc1)C(=O)N[C@H](CCCCNC(N)=O)C(=O)N[C@@H](CC(C)(C)C)C(=O)N[C@@H](CCCNC(=N)N)C(=O)N1CCC[C@H]1C(=O)N[C@H](C)C(N)=O [Example 19, AcD-Nal-D-pClPhe-D-Pal-Ser-Tyr-D-HCit-Npg-Arg-Pro-D-Ala-NH2] (Ac-[d2Nal][dPhe(4-Cl)][d3Pal]SY[d(hCit)][tBuAla]RP[dA]-NH2) |  |  | 0.0776 nM |  | 100% | 40% | 
5 | CC(=O)N[C@H](Cc1ccc2ccccc2c1)C(=O)N[C@H](Cc1ccc(Cl)cc1)C(=O)N[C@H](Cc1cccnc1)C(=O)N[C@@H](CO)C(=O)N[C@@H](Cc1ccc(O)cc1)C(=O)N[C@H](CCCNC(N)=O)C(=O)N[C@@H](CC(C)(C)C)C(=O)N[C@@H](CCCCNC(C)C)C(=O)N1CCC[C@H]1C(=O)N[C@H](C)C(N)=O [Example 17, AcD-Nal-D-pClPhe-D-Pal-Ser-Tyr-D-Cit-Npg-IprLys-Pro-D-Ala-NH2] (Ac-[d2Nal][dPhe(4-Cl)][d3Pal]SY[dCit][tBuAla][Lys(iPr)]P[dA]-NH2) |  |  | 0.191 nM | 43% | 100% | 80% | Number of ovulating females/total number of treated females (LH-RH receptors [4]; 0.25 μg/rat s.c.): 1/5; Number of ovulating females/total number of treated females (LH-RH receptors [4]; 0.5 μg/rat s.c.): 4/7; % of inhibition of ovulation (LH-RH receptors [4]; 0.75 μg/rat s.c.): 100%; Number of ovulating females/total number of treated females (LH-RH receptors [4]; 0.75 μg/rat s.c.): 0/7; Number of ovulating females/total number of treated females (LH-RH receptors [4]; 1 μg/rat s.c.): 0/12; antiovulatory activity in words (LH-RH receptors [4]; 1 μg/rat s.c.): maximal or sub-maximal activity; dose relation of the inhibition of ovulation, in words (LH-RH receptors [4]; dose range studied, s.c.): especially active, but its effects were not related to the dose
6 | CC(=O)N[C@H](Cc1ccc2ccccc2c1)C(=O)N[C@H](Cc1ccc(Cl)cc1)C(=O)N[C@H](Cc1cccnc1)C(=O)N[C@@H](CO)C(=O)N[C@@H](Cc1ccc(O)cc1)C(=O)N[C@H](CCCCNC(N)=O)C(=O)N[C@@H](CC(C)(C)C)C(=O)N[C@@H](CCCCNC(C)C)C(=O)N1CCC[C@H]1C(=O)N[C@H](C)C(N)=O [Example 18, AcD-Nal-D-pClPhe-D-Pal-Ser-Tyr-D-HCit-Npg-IprLys-Pro-D-Ala-NH2] (Ac-[d2Nal][dPhe(4-Cl)][d3Pal]SY[d(hCit)][tBuAla][Lys(iPr)]P[dA]-NH2) |  |  | 0.0851 nM |  | 80% | 20% | 
7 | Antide (peptide) | 9.16 -log Ki | > 9 -log Ki |  |  |  |  | 
8 | Histrelin (peptide) | 9.98 -log Ki | > 9 -log Ki |  |  |  |  | 
9 | CC(=O)N[C@H](Cc1ccc2ccccc2c1)C(=O)N[C@H](Cc1ccc(Cl)cc1)C(=O)N[C@H](Cc1cccnc1)C(=O)N[C@@H](CO)C(=O)N[C@@H](CCCCNC(=O)c1cccnc1)C(=O)N[C@H](CCCCNC(=O)c1cccnc1)C(=O)N[C@@H](CC(C)(C)C)C(=O)N[C@@H](CCCCNC(C)C)C(=O)N1CCC[C@H]1C(=O)N[C@H](C)C(N)=O [Example 15, AcD-Nal-D-pClPhe-D-Pal-Ser-NicLys-D-NicLys-Npg-IprLys-Pro-D-Ala-NH2] (Ac-[d2Nal][dPhe(4-Cl)][d3Pal]SK(Nicotinoyl)[dK](Nicotinoyl)[tBuAla][Lys(iPr)]P[dA]-NH2) |  |  | 0.589 nM | 100% | 80% | 60% | % of inhibition of ovulation (LH-RH receptors [4]; 0.1 μg/rat s.c.): 0%
